Values of other authors as cited in PMC7366343 (Journal of the American Chemical Society, 2019).

Key:
hTDO = hTDO (Homo sapiens, UniProt P48775); settings: read-out: reported IC50 for hTDO
Sequence of hTDO (P48775 whole entry): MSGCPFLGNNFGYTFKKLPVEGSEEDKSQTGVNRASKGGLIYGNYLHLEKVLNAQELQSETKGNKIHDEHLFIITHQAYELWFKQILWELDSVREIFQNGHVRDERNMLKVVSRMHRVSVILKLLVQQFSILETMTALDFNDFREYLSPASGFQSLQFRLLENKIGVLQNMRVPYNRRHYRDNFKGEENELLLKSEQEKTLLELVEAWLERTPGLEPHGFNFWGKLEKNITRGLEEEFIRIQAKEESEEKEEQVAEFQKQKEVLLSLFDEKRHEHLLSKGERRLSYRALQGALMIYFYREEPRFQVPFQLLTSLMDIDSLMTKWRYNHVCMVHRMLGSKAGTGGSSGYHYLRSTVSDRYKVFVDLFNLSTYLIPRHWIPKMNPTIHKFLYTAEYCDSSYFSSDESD

blood-brain barrier crossing: able to cross the blood-brain barrier
IC50 (hTDO): > 50 µM
Compound: O=C1CC(c2c[nH]c3ccc(F)cc23)C(=O)N1 (centres unmarked) [IPD, 3-(5-Fluoro-1H-indol-3-yl)pyrrolidine-2,5-dione]
